We go through one molecule from article PMC10926604, “Discovery of a novel small molecule as CD47/SIRPα and PD-1/PD-L1 dual inhibitor for cancer immunotherapy” (Cell Communication and Signaling : CCS, 2024).

“Also recorded” adds a separate entry of the source.

The test system of data set [1] is GFP+ MC38 cells phagocytosed by BMDMs. Description: Phagocytosis assay, BMDMs with GFP+ MC38 cells. In kind it is cell-based, mouse. Particulars: 50 μM. On the procedure: Bone marrow-derived macrophage cells (BMDMs) from C57BL/6N mice were isolated and induced with 20 ng/mL of mouse granulocyte–macrophage colony-stimulating factor (GM-CSF, 315–03, Peprotech) for 7 days, with regular medium changes and cytokine replenishment during cell induction. The cells were then harvested for subsequent experiments. Subsequently, the cells were treated with SMC18 at a concentration of 50 μΜ. The anti-CD47 antibody (clone miap301, 16–0471-81, Invitrogen) was employed as a positive control with 20 µg/mL. Phagocytosis was measured by the co-culture of macrophages with green fluorescent protein (GFP^+) tumor cells (GFP^+ MC38 and GFP^+ B16-OVA cells) at a ratio of 1:4 in serum-free medium at 37 °C for 4 h. The cells were harvested and identified by flow cytometry using anti-F4/80 antibody (BM8, 17–4801-82, eBioscience). The phagocytosis rate was calculated as the percentage F4/80^+GFP^+ cells relative to the total number of total F4/80^+ cells. For confocal microscopy detection, BMDMs were labelled with DiR dye (R-22070, Beyotime) at a final concentration of 200 μM, followed by a 30-min staining period. After washing with PBS three times, the cells were cultured with DMEM medium devoid of serum for 2 h. Subsequently, MC38-EGFP cells were seeded onto BMDMs at a density of 4 × 10^6 cells per well. […]

A further data set has as its target hLAG-3/hFGL-1 (Homo sapiens, UniProt P18627+Q08830). Description: Blockade of other immune checkpoint pathways, LAG-3/FGL-1. In kind it is cell-based. The settings on record: Fig. S2.
For another data set, the system named is MC38 tumor-bearing mice. Description: MC38 tumor model, SMC18 combined with radiotherapy. In kind it is in vivo, mouse. Particulars: one 20 Gy dose local IR + SMC18 2 mg/kg i.p. daily for 14 days. As to the method:
For the combined radiotherapy treatment model, mice were randomly grouped into four groups when the tumor volume reached approximately 40 ~ 60 mm^3. Mice were treated with a single dose of 20 Gy of local tumor irradiation (Precision X-Ray, XRad320) and daily intraperitoneal injections of SMC18 (2 mg/kg) or equivalent amount of saline for 14 days. Tumor volume was measured every other day using the formula V = 1/2 × a × b × c, where a, b, and c are the tumor's length, width, and height, respectively.

Sequence of hLAG-3/hFGL-1 (P18627 23-525): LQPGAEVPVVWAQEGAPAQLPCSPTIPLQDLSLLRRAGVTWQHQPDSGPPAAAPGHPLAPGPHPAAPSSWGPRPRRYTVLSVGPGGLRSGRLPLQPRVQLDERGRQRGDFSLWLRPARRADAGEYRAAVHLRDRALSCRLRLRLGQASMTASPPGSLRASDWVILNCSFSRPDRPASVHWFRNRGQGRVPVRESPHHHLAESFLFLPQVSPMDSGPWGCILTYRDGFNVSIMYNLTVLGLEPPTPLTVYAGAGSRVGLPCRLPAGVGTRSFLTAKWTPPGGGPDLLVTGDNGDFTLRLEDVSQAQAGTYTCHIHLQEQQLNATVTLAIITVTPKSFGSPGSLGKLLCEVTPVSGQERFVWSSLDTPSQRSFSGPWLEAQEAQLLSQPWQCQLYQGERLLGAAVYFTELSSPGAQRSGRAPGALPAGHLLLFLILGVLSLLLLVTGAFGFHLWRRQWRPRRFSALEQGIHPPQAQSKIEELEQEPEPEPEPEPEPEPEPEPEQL
Sequence of hLAG-3/hFGL-1 (Q08830 23-312): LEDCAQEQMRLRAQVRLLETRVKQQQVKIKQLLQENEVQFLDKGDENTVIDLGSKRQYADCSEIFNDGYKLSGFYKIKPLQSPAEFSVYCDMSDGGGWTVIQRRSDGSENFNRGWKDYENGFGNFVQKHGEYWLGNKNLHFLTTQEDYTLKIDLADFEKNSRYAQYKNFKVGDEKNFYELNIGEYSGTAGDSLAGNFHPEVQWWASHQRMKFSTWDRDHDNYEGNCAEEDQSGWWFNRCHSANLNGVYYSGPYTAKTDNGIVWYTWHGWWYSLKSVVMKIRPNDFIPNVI

For `Cc1cc(C)cc(NS(=O)(=O)c2ccc3[nH]cc(C(=O)NCCc4ccccc4)c(=O)c3c2)c1` [SMC18], the “phagocytosis of MC38 by BMDMs (flow cytometry)” value in data set [1] (4 h) is on record as “significantly increased”. For the same molecule, the “macrophage phagocytosis of MC38 cells (confocal)” value in data set [1] (DiR-labelled BMDMs, MC38-EGFP, vs control group) was “significantly enhanced”. Also, at hLAG-3/hFGL-1, the “inhibitory effect on hLAG-3/hFGL-1 pathway” value is given as “no blocking effect; also recorded: did not impede”. Further, in the data set on MC38 tumor-bearing mice, the “body weight of the mice, combination with radiotherapy” value was “without affecting” and the “tumor growth, combination with radiotherapy” value is “significantly inhibited”.
